According to publication PMC11822712, “Improving the Activity and Selectivity of a Scorpion-Derived Peptide, A3a, against Acinetobacter baumannii through Rational Design” (ACS Omega, 2025):
pIC50: −log10 of the molar value. In brackets after ≈: the same amount, converted by molar mass. Read-outs that look alike come from different tables or passages of the source. Positions of bridges follow the written chain, without caps; N, C: chain ends. Non-standard residues stand in square brackets, D forms with d. Residues, ends and D or L forms follow the SMILES beside them. No end group written: not given here. *: point of attachment. X1 = CC[C@H](C)CCCCC(=O)*; Dab = NCC[C@H](N)C(=O)O

Legend:
[1] = test system: A. baumannii ATCC 19606; test: Membrane permeabilization, SYTOX Green assay; type: cell-based, Acinetobacter baumannii; details: SYTOX Green fluorescence, 1× MIC, 0.5 and 2 h exposure; melittin 8 μM positive control; three biological repeats
Experimental: For membrane permeabilization studies, A. baumannii ATCC 19606 cells were evaluated after exposure to each peptide by measuring fluorescence. The SYTOX Green assay was undertaken according to Zeng et al.,[58] with some modifications. […] Melittin (8 μM) was used as the positive control. The fluorescence was measured every 2 min at excitation and emission wavelengths of 485 and 535 nm, respectively (Spectramax, Multimode detection platform, Molecular Devices, Austria).

[2] = test system: K. pneumoniae ATCC BAA-1705; test: microbe, parasite or virus in culture; type: cell-based, Klebsiella pneumoniae
[3] = test system: S. aureus (MSSA) ATCC 25923; test: microbe, parasite or virus in culture; type: cell-based, Staphylococcus aureus; details: cation-adjusted MHB, OD600
[4] = test system: E. coli ATCC 25922; test: microbe, parasite or virus in culture; type: cell-based, Escherichia coli; details: cation-adjusted MHB, OD600
[5] = test system: A. baumannii ATCC 19606; test: microbe, parasite or virus in culture; type: cell-based, Acinetobacter baumannii; details: cation-adjusted MHB, OD600
[6] = test system: P. aeruginosa ATCC 27853; test: microbe, parasite or virus in culture; type: cell-based, Pseudomonas aeruginosa; details: cation-adjusted MHB, OD600
[7] = test system: E. cloacae ATCC 700323; test: microbe, parasite or virus in culture
Experimental: Antimicrobial activity was determined against a panel of ESKAPE pathogens. […] Bacterial colonies were picked and cultured in cation-adjusted MHB at 37 °C with 180 rpm shaking. Cultures were back-diluted to reach a starting OD600 of 0.1 and then diluted 100-fold to approximately 1 × 10^6 CFU/mL.

[8] = test system: A. baumannii ATCC 19606; test: Killing kinetics (CFU, Miles Misra method); type: cell-based, Acinetobacter baumannii; details: 1×, 4× and 8× MIC, A3a tested at the same concentration as A3a[R7K] (Figure 3 legend)
Experimental: Colistin (8 μg/mL) was used as a positive control. […] Following exposure, 10 μL was used from the individual wells to determine the CFUs with the Miles Misra method.[57] The limit of detection for this method was 1000 CFUs. This was done at 30 min and 2, 6, and 24 h.

[9] = test system: erythrocytes; details: 40 μM ref 13; cited from earlier work
[10] = test system: HaCat cell; details: read-out: IC50 of HaCat cell viability; cited from earlier work
Experimental: Previously, we amidated the C-terminus of A3 to improve its activity against Gram-negative bacteria.[14] A3, the amidated analogue A3a, and the parent peptide AamAP1 were evaluated for antibacterial activity against a panel of ESKAPE pathogens.

[11] = cation-adjusted MHB, approx. 1 × 10^6 CFU/mL added 1:1, 20 h, OD600, MIC = lowest concentration with growth <0.1 above background, > = no activity at highest concentration tested
[12] = approx. 1 × 10^6 CFU/mL added 1:1, 20 h, MIC = lowest concentration with growth <0.1 above background, > = no activity at highest concentration tested
[13] = same test as μg/mL value, cation-adjusted MHB, 20 h, OD600
[14] = same test as μg/mL value, 20 h, read-out: MIC (value in brackets)

Molecule	MIC [2, 11] [µg/mL]	MIC [3, 12] [µg/mL]	MIC [4, 12] [µg/mL]	MIC [5, 12] [µg/mL]	MIC [6, 12] [µg/mL]	MIC [7, 11] [µg/mL]	other results
melittin							membrane permeabilization [1]: rapid membrane permeabilization
FLFSLRKAGGLISAFK-NH2 [A3a[I(6,10)-del]]	>128	>128	>128	>128	>128	>128	
CC[C@H](C)CCCCC(=O)N[C@@H](CCN)C(=O)N[C@H](C(=O)N[C@@H](CCN)C(=O)N[C@H]1CCNC(=O)[C@H]([C@@H](C)O)NC(=O)[C@H](CCN)NC(=O)[C@H](CCN)NC(=O)[C@H](CC(C)C)NC(=O)[C@@H](Cc2ccccc2)NC(=O)[C@H](CCN)NC1=O)[C@@H](C)O [polymyxin B] (X1-[Dab]T[Dab][Dab][Dab][dF]L[Dab][Dab]T; lactam 4-C (inferred); N-terminus assumed)	0.5	>32	0.5	1	2	0.25	MIC (value in brackets) [2, 13]: 0.4 µM (≈ 0.481 µg/mL); MIC [4, 14]: 0.4 µM; MIC [5, 14]: 0.76 µM; MIC [6, 14]: 1.5 µM; MIC (value in brackets) [7, 13]: 0.19 µM (≈ 0.229 µg/mL)
CNC(C)C1CCC(N)C(OC2C(N)CC(N)C(OC3OCC(C)(O)C(NC)C3O)C2O)O1 (stereo not drawn) [gentamicin]	2	0.5	0.5	32	4		MIC ([2]; Klebsiella pneumoniae, ATCCBAA1705, 20 h, read-out: MIC (value in brackets)): 4 µM; MIC ([3]; Staphylococcus aureus, same test as μg/mL value, 20 h, read-out: MIC (value in brackets)): 1 µM; MIC ([4]; Escherichia coli, ATCC25922, same test as μg/mL value, 20 h, read-out: MIC (value in brackets)): 1 µM; MIC ([5]; Acinetobacter baumannii, ATCC19606, same test as μg/mL value, 20 h, read-out: MIC (value in brackets)): 67 µM; MIC ([6]; Pseudomonas aeruginosa, ATCC27853, same test as μg/mL value, 20 h, read-out: MIC (value in brackets)): 8 µM; MIC ([7]; Enterobacter cloacae, ATCC700323, 20 h, read-out: MIC (value in brackets)): 4 µM; MIC ([7]; cation-adjusted MHB, approx. 1 × 10^6 CFU/mL added 1:1, 20 h, OD600, […], > = no activity at highest concentration tested): 2 µg/mL
colistin							regrowth after 24 h in killing kinetics [8]: regrowth at all of the concentrations tested
FLFSLIRKAIGGLISAFK [A3, AMP derived from AamAP1 by substituting proline 7 with arginine and histidine 8 with lysine]							hemolysis [9]: 36.1%; pIC50 [10]: 4.22
